Results on 5 molecules are retold here after article PMC12028738 (Marine Drugs, 2025).

Where no end group is shown, it is not given here. A value given as a limit tells only on which side of the number the result lay.

In one series the target is PD-1/PD-L1 binding. The note with it: read-out: PD-1/PD-L1 inhibitory IC50; cited from earlier work. From the text:
(§1) With continuous progress of modern separation and analysis techniques, high-throughput screening methods for enzyme inhibitory peptides have emerged as powerful tools in the discovery of bioactive peptides. Recently, the methodologies based on the phage display library, bacteria display library, and peptide fragment of proteins have been applied in screening for PD-L1 inhibitors.

Another series can be described thus: Water-solubility. Format: physicochemical. As to conditions: qualitative statement.
In a further series the test system is CT26 tumor. As to conditions: 2 mg/kg, CT26 tumor-bearing mice; cited from earlier work.
From the text: as §1

For another series, the target named is Tag1-PD-L1 protein (UniProt Q9NZQ7 19-238). In words: AlphaScreen or HTRF; Cisbio PD-1/PD-L1 HTRF binding assay kit; competition: analyte with Tag1-PD-L1 and Tag2-PD-1 for 15 min at room temperature, then anti-Tag1-Eu3+ and anti-Tag2-XL665 for 2 h at room temperature. As to conditions: both partners purified. In general terms: Alpha assays give light when donor and acceptor beads are brought close together.

For series [1], the target named is T1, recombinant human PD-L1 (residue 18–239, extracellular domain) (human, UniProt Q9NZQ7 18-239).
T1 construct: Programmed death ligand 1 (PD-L1, B7-H1, CD274), human, residues 18-239, extracellular domain; The limits 18-239 are told for the SPR experiment; No tag is stated; also called programmed death ligand 1; source: bought: Abcam (recombinant, 25 kDa)
Kind of series: SPR; Biacore T200, 25 °C; PD-L1 amine-coupled on a CM5 chip to about 5600 RU; peptides injected in PBS-P (1% DMSO) at 30 µL/min, 60 s contact, 60 s dissociation. The note with it: both partners purified. (In general: SPR reads the build-up and loss of mass on a sensor chip optically.)

For “CKWYRPSEC [cyclic peptide C8, not the ascidian peptide C8]”, the IC50 at PD-1/PD-L1 binding was below 10 µM.

In the case of LDVVIHTVTYGDR [C5], the water-solubility entry in the series “Water-solubility” is reported as “poor”.

As to NYSKPTDRQYHF [^DPPA-1], in the series on CT26 tumor, the “prolongation of survival time” value is listed as around 50% and the tumor growth result is on record as “inhibited the tumor growth”.

B1: C5 (peptide)
peptide: LDVVIHTVTYGDR
notes: from the Ciona intestinalis trypsin hydrolysate; written as one molecule; The parent protein is not known; also called peptide C5; source: trypsin hydrolysate of Ciona intestinalis (AUF); synthetic peptide, GuoPing Pharmaceutical (HTRF, SPR)
Molecule B1 displayed an IC50 with Tag1-PD-L1 protein of 33.9 µM. Besides, the Kd in series [1] was determined as 22.9 µM.

B2: S2 (peptide)
peptide: VLRDNIQGITKPAIR
notes: from the Styela clava trypsin hydrolysate; candidate protein: Histone H4 (Transparent ascidian); the text says that it exactly matches Histone H4 of Ciona savignyi; written as one molecule; also called peptide S2; source: trypsin hydrolysate of Styela clava (AUF); synthetic peptide, GuoPing Pharmaceutical (HTRF, SPR)
B2: in the series with Tag1-PD-L1 protein, the IC50 came out at 113 µM. The Kd in series [1] amounted to 29.1 µM.

In general, Kd refers to the equilibrium constant for the complex coming apart.
